Measured values taken from ChEMBL document CHEMBL1201862, “PubChem BioAssay data set” (2004).
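Cultured in 96-well plates, cells were exposed to test compound for 48 hours across five concentrations. GI50 = concentration required for 50% inhibition of growth.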 Active and inactive are the calls of the source. Rule as the data show it: active = GI50 up to about 1.1 µM and inactive = higher.

Legend:
Assay in all cases: growth of human tumour cells (NCI), 48 h
786-0 = tested on: 786-0
CAKI-1 = tested on: CAKI-1
CCRF-CEM = tested on: CCRF-CEM
COLO 205 = tested on: COLO 205
EKVX = tested on: EKVX
HCT-116 = tested on: HCT-116
HOP-62 = tested on: HOP-62
HT-29 = tested on: HT-29
M14 = tested on: M14
NCI-H226 = tested on: NCI-H226
NCI/ADR-RES = tested on: NCI/ADR-RES
PC-3 = tested on: PC-3
RXF 393 = tested on: RXF 393
SF-268 = tested on: SF-268
SF-295 = tested on: SF-295
SK-MEL-2 = tested on: SK-MEL-2
SK-MEL-5 = tested on: SK-MEL-5
SNB-75 = tested on: SNB-75
SF-539 = tested on: SF-539
A498 = tested on: A498

Measured: GI50

CCCCCC(=O)n1[nH]c(=O)n(-c2ccc(OC)cc2)c1=O
inactive: 786-0 > 100 µM | CAKI-1 > 100 µM | CCRF-CEM > 100 µM | COLO 205 > 100 µM | EKVX > 100 µM | HCT-116 > 100 µM | HOP-62 > 100 µM | HT-29 > 100 µM | M14 > 100 µM | NCI-H226 > 100 µM | NCI/ADR-RES > 100 µM | PC-3 > 100 µM | RXF 393 > 100 µM | SF-268 > 100 µM | SF-295 > 100 µM | SK-MEL-2 > 100 µM | SK-MEL-5 > 100 µM | SNB-75 > 100 µM

O=C(O)CSC1=NC(=O)C2(NN1)c1ccccc1-c1ccccc12
inactive: 786-0 > 10 µM | CAKI-1 > 10 µM | CCRF-CEM > 10 µM | COLO 205 > 10 µM | EKVX > 10 µM | HCT-116 > 10 µM | HOP-62 > 10 µM | HT-29 > 10 µM | M14 > 10 µM | NCI-H226 > 10 µM | NCI/ADR-RES > 10 µM | PC-3 > 10 µM | RXF 393 > 10 µM | SF-268 > 10 µM | SF-295 > 10 µM | SF-539 > 10 µM | SK-MEL-5 > 10 µM | SNB-75 > 10 µM

COc1ccc(-c2nc(Nc3ccccc3)sc2Cc2sc(Nc3ccccc3)nc2-c2ccc(OC)cc2)cc1
inactive: 786-0 98.9 µM | A498 25.2 µM | CAKI-1 > 100 µM | CCRF-CEM 36.5 µM | COLO 205 7.57 µM | EKVX > 100 µM | HCT-116 43.4 µM | HOP-62 > 100 µM | HT-29 70.6 µM | NCI-H226 > 100 µM | NCI/ADR-RES > 100 µM | RXF 393 4.35 µM | SF-268 > 100 µM | SF-295 > 10 µM | SF-539 > 100 µM | SK-MEL-5 > 100 µM | SNB-75 > 100 µM

O=c1nc2n(cc1/C=C\Br)C1CC(O)C(CO2)O1 (stereo not drawn)
inactive: 786-0 > 100 µM | A498 49.9 µM | CAKI-1 > 100 µM | CCRF-CEM 36.7 µM | COLO 205 > 100 µM | EKVX > 100 µM | HCT-116 > 100 µM | HOP-62 > 100 µM | HT-29 > 100 µM | NCI-H226 > 100 µM | NCI/ADR-RES > 100 µM | RXF 393 25 µM | SF-268 > 100 µM | SF-295 > 100 µM | SF-539 38.4 µM | SK-MEL-5 > 100 µM | SNB-75 > 100 µM

O=c1[nH][nH]c(=O)c2c1ccc1oc3ccccc3c12
inactive: 786-0 > 100 µM | A498 > 100 µM | CAKI-1 45.8 µM | CCRF-CEM > 100 µM | COLO 205 > 100 µM | EKVX 56.2 µM | HCT-116 > 100 µM | HOP-62 > 100 µM | HT-29 > 100 µM | M14 > 100 µM | NCI-H226 > 100 µM | PC-3 > 100 µM | RXF 393 > 100 µM | SF-268 > 100 µM | SF-295 > 100 µM | SF-539 > 100 µM | SK-MEL-2 > 100 µM | SK-MEL-5 > 100 µM | SNB-75 > 100 µM

NC1=C(N2CCOCC2)C(=O)NC2=N/C(=C\c3ccccc3O)C(=O)N21
inactive: 786-0 > 100 µM | A498 > 100 µM | CAKI-1 > 100 µM | CCRF-CEM > 100 µM | COLO 205 > 100 µM | EKVX > 100 µM | HCT-116 > 100 µM | HT-29 > 100 µM | M14 > 100 µM | NCI-H226 59.6 µM | NCI/ADR-RES > 100 µM | RXF 393 > 100 µM | SF-268 > 100 µM | SF-295 > 100 µM | SF-539 > 100 µM | SK-MEL-5 73.6 µM | SNB-75 > 100 µM

CC1CN=C(Nc2cccc(F)c2)S1 (stereo not drawn)
inactive: 786-0 > 100 µM | CAKI-1 > 100 µM | CCRF-CEM 91 µM | COLO 205 > 100 µM | EKVX > 100 µM | HCT-116 > 100 µM | HOP-62 > 100 µM | HT-29 > 100 µM | M14 > 100 µM | NCI-H226 > 100 µM | NCI/ADR-RES > 100 µM | PC-3 > 100 µM | RXF 393 > 100 µM | SF-268 > 100 µM | SF-295 > 100 µM | SF-539 > 100 µM | SK-MEL-2 > 100 µM | SK-MEL-5 > 100 µM | SNB-75 > 100 µM

[O-][S+](Nc1ccccc1)c1ccccc1Oc1ccccc1 (stereo not drawn)
inactive: 786-0 24.7 µM | CAKI-1 39.8 µM | CCRF-CEM 32.5 µM | COLO 205 > 100 µM | EKVX 26 µM | HCT-116 34.1 µM | HOP-62 32.7 µM | HT-29 60.5 µM | M14 24.5 µM | NCI-H226 30.4 µM | NCI/ADR-RES 27.5 µM | PC-3 39.2 µM | RXF 393 48.2 µM | SF-268 16.3 µM | SF-295 28.2 µM | SF-539 14.6 µM | SK-MEL-5 30.5 µM | SNB-75 28.6 µM
